According to patent US20230121689A1, “CEPHALOSPORIN ANTIBACTERIAL COMPOUND AND PHARMACEUTICAL APPLICATION THEREOF” (priority 2020, published 2023):
Values after ≈ are worked out from the molar mass of the structure shown. Read-outs that look alike come from different tables or passages of the source.

Columns and labels:
Type in all cases: cell-based
[1] = tested on: Control Strain Pseudomonas aeruginosa ATCC 27853; test: Test Example 2: antibacterial activity test (MIC)
Description: (§1) 1. The test compounds were dissolved in sterile normal saline, vortexed for uniformly mixing, and diluted in a 2-fold dilution with the sterile normal saline (11 concentration points in total). The test concentration range was 32-0.031 μg/mL, and two duplicate wells were set for each concentration. Additional wells without drug dosing were set as growth controls. 2. 4 μL of the diluent was added to 196 μL of the bacterial suspension in a 96-well plate (the bacterial count in the bacterial suspension was 2-8×10^5 colony forming units/mL). 3.
(§2) The minimum inhibitory concentration (MIC) assay was performed with reference to the Clinical and Laboratory Standards Institute (CLSI) guidelines.

[2] = tested on: Carbapenem-resistant Enterobacteriaceae (CRE, Klebsiella pneumoniae); test: Test Example 2: antibacterial activity test (MIC)
Description: as §1, §2

[3] = tested on: Control strain Escherichia coli ATCC 25922; test: Test Example 2: antibacterial activity test (MIC)
Description: as §1, §2

[4] = tested on: Carbapenem-resistant Acinetobacter baumannii (CRAB, Acinetobacter baumannii); test: Test Example 2: antibacterial activity test (MIC)
Description: as §1, §2

[5] = tested on: Carbapenem-resistant Pseudomonas aeruginosa (CRPA, Pseudomonas aeruginosa); test: Test Example 2: antibacterial activity test (MIC)
Description: as §1, §2

[6] = tested on: Carbapenem-resistant Enterobacteriaceae (CRE); test: Test Example 1: antibacterial activity test (MIC)
Description: (§3) The test compounds were diluted in a gradient and used for an MIC assay on the test strains. The test compounds at an initial assay concentration of 32 μg/mL were diluted in a 2-fold gradient (11 concentration points in total), and two duplicate wells were set for each concentration. Additional wells without drug dosing were set as growth controls. The minimum inhibitory concentration (MIC) assay was performed with reference to the Clinical and Laboratory Standards Institute (CLSI) guidelines.
(§4) After the frozen strains were subcultured, a single colony was picked and re-suspended in normal saline or sterile water in a tube. The bacterial suspension was vortexed and adjusted to 0.5 McF using a spectrophotometer at the wavelength of 530 nm. The bacterial solution was taken by a pipette, added to a culture medium, diluted and mixed well, and seeded to a bacterial assay plate.
(§5) The 96-well plate was affixed with a disposable sealing film, shaken and mixed well, and visually observed using a plate reader. The minimum concentration of the compounds capable of inhibiting the growth of bacteria was defined as MIC as compared to the growth controls.

[7] = tested on: Carbapenem-resistant Acinetobacter baumannii (CRAB); test: Test Example 1: antibacterial activity test (MIC)
Description: as §3, §4, §5

[8] = tested on: Carbapenem-resistant Pseudomonas aeruginosa (CRPA); test: Test Example 1: antibacterial activity test (MIC)
Description: as §3, §4, §5

C[C@H](CN(CCCNC(=O)c1ccc(O)c(O)c1Cl)C(=O)c1ccc(O)c(O)c1Cl)[N+]1(CC2=C(C(=O)O)N3C(=O)[C@@H](NC(=O)/C(=N\OC(C)(C)C(=O)O)c4csc(N)n4)[C@H]3SC2)CCCC1 [Compound 11]
MIC ([1]; ATCC27853, read-out: ID-CAMHB, MIC): 0.0625 µg/mL
MIC ([2]; read-out: ID-CAMHB, MIC, ID-CAMHB, FDA-CDC AR-BANK #0361 (TEM-1; SHV-12; KPC-2)): 1 µg/mL
MIC ([2]; read-out: ID-CAMHB, MIC, ID-CAMHB, FDA-CDC AR-BANK #0362 (TEM-1; SHV-11; KPC-2)): 0.25 µg/mL
MIC ([2]; read-out: ID-CAMHB, MIC, ID-CAMHB, FDA-CDC AR-BANK #0363 (TEM-1; SHV-12; KPC-2)): 0.5 µg/mL
MIC ([2]; read-out: ID-CAMHB, MIC, ID-CAMHB, FDA-CDC AR-BANK #0438 (aph(3′)-Ia, dfrA12, KPC-3, OmpK35, oqxA, oqxB, SHV-11)): 1 µg/mL
MIC ([2]; read-out: ID-CAMHB, MIC, ID-CAMHB, FDA-CDC AR-BANK #0453 (KPC-3, OmpK35, oqxA, oqxB, SHV-11, TEM-1B)): 1 µg/mL
MIC ([3]; ATCC25922, read-out: ID-CAMHB, MIC): 0.125 µg/mL
MIC ([4]; read-out: ID-CAMHB, MIC, ID-CAMHB, FDA-CDC AR-BANK #0036 (strB, OXA-65, OXA-24, strA, sul2)): 0.5 µg/mL
MIC ([4]; read-out: ID-CAMHB, MIC, ID-CAMHB, FDA-CDC AR-BANK #0052 (OXA-58, OXA-100, sul2)): 0.125 µg/mL
MIC ([4]; read-out: ID-CAMHB, MIC, ID-CAMHB, FDA-CDC AR-BANK #0063 (OXA-23, OXA-65, OXA-24, sul2)): 4 µg/mL
MIC ([4]; read-out: ID-CAMHB, MIC, ID-CAMHB, FDA-CDC AR-BANK #0070 (OXA-58, OXA-100, sul2)): 0.25 µg/mL
MIC ([4]; read-out: ID-CAMHB, MIC, ID-CAMHB, FDA-CDC AR-BANK #0101 (strB, OXA-65, OXA-24, strA, sul2)): 1 µg/mL
MIC ([5]; read-out: ID-CAMHB, MIC, ID-CAMHB, FDA-CDC AR-BANK #0439 (aac(6′)-Il, aadA1b, BCR1, IMP-18, OXA-50)): 0.5 µg/mL
MIC ([5]; read-out: ID-CAMHB, MIC, ID-CAMHB, FDA-CDC AR-BANK #0441 (KPC-2)): 8 µg/mL
MIC ([5]; read-out: ID-CAMHB, MIC, ID-CAMHB, FDA-CDC AR-BANK #0444 (aac(6′)-Il, dfrB5, OXA-4, tet(G), VIM-2)): 4 µg/mL
MIC ([5]; read-out: ID-CAMHB, MIC, ID-CAMHB, FDA-CDC AR-BANK #0457 (aadA6, VIM-2)): 0.25 µg/mL

C[C@@H](O)[C@H]1C(=O)N2C(C(=O)O)=C(S[C@@H]3CN[C@H](C(=O)N(C)C)C3)[C@H](C)[C@H]12 [Meropenem, reference compound]
MIC ([6]; CRE strain No. 100109): > 32 µg/mL
MIC ([6]; CRE strain No. 100186): > 32 µg/mL
MIC ([6]; CRE strain No. 110502): 32 µg/mL (≈ 83.4 µM)
MIC ([6]; CRE strain No. 110525): 32 µg/mL (≈ 83.4 µM)
MIC ([6]; CRE strain No. 311277): 32 µg/mL (≈ 83.4 µM)
MIC ([7]; CRAB strain No. 100085): 32 µg/mL (≈ 83.4 µM)
MIC ([7]; CRAB strain No. 100333): > 32 µg/mL
MIC ([7]; CRAB strain No. 110440): 32 µg/mL (≈ 83.4 µM)
MIC ([7]; CRAB strain No. 110477): > 32 µg/mL
MIC ([7]; CRAB strain No. 110517): 32 µg/mL (≈ 83.4 µM)
MIC ([8]; CRPA strain No. 100110): 32 µg/mL (≈ 83.4 µM)
MIC ([8]; CRPA strain No. 110163): 24 µg/mL (≈ 62.6 µM)
MIC ([8]; CRPA strain No. 110224): 16 µg/mL (≈ 41.7 µM)
MIC ([8]; CRPA strain No. 110358): 4 µg/mL (≈ 10.4 µM)
MIC ([8]; CRPA strain No. 110390): 12 µg/mL (≈ 31.3 µM)
MIC ([1]; ATCC27853, CAMHB, ATCC 27853, read-out: CAMHB MIC): 0.5 µg/mL (≈ 1.3 µM)
MIC ([2]; read-out: CAMHB MIC, CAMHB, FDA-CDC AR-BANK #0361): 16 µg/mL (≈ 41.7 µM)
MIC ([2]; read-out: CAMHB MIC, CAMHB, FDA-CDC AR-BANK #0362): > 32 µg/mL
MIC ([2]; read-out: CAMHB MIC, CAMHB, FDA-CDC AR-BANK #0363): 32 µg/mL (≈ 83.4 µM)
MIC ([2]; read-out: CAMHB MIC, CAMHB, FDA-CDC AR-BANK #0438): > 32 µg/mL
MIC ([2]; read-out: CAMHB MIC, CAMHB, FDA-CDC AR-BANK #0453): > 32 µg/mL
MIC ([3]; ATCC25922, CAMHB, ATCC 25922, read-out: CAMHB MIC): ≤ 0.0312 µg/mL
MIC ([4]; CAMHB, FDA-CDC AR-BANK #0036, read-out: CAMHB MIC): > 32 µg/mL
MIC ([4]; CAMHB, FDA-CDC AR-BANK #0052, read-out: CAMHB MIC): 16 µg/mL (≈ 41.7 µM)
MIC ([4]; CAMHB, FDA-CDC AR-BANK #0063, read-out: CAMHB MIC): > 32 µg/mL
MIC ([4]; CAMHB, FDA-CDC AR-BANK #0070, read-out: CAMHB MIC): 8 µg/mL (≈ 20.9 µM)
MIC ([4]; CAMHB, FDA-CDC AR-BANK #0101, read-out: CAMHB MIC): > 32 µg/mL
MIC ([5]; CAMHB, FDA-CDC AR-BANK #0439, read-out: CAMHB MIC): > 32 µg/mL
MIC ([5]; CAMHB, FDA-CDC AR-BANK #0441, read-out: CAMHB MIC): > 32 µg/mL
MIC ([5]; CAMHB, FDA-CDC AR-BANK #0444, read-out: CAMHB MIC): > 32 µg/mL
MIC ([5]; CAMHB, FDA-CDC AR-BANK #0457, read-out: CAMHB MIC): > 32 µg/mL
